The record followed here is patent US20250197799A1, “CELLS DERIVED FROM POLYPEDILUM VANDERPLANKI AND ODOR SENSOR EQUIPPED THEREWITH” (University of Maryland, College Park, priority 2022, published 2025).

Structures are written as SMILES. “Also recorded” adds a separate entry of the source.

Assay [1] has as its target T1, Orco-Or47a (Drosophila melanogaster, UniProt P81921+Q9VNB5).
T1 sequence (Q9VNB5 1-486): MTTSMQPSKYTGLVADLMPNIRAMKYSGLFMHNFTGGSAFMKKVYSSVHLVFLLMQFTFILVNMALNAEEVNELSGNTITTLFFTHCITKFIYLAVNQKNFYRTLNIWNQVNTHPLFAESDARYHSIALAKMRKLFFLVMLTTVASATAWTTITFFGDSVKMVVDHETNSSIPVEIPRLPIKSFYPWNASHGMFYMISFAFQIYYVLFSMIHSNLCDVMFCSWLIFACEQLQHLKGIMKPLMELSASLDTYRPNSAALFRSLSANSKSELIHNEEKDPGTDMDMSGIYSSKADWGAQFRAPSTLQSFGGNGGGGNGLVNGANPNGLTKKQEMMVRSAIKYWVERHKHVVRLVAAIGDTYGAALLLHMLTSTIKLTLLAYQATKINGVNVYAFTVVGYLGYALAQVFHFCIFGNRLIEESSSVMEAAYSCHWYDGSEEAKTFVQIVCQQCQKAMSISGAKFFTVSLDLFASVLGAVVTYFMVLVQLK
T1 sequence (P81921 1-385): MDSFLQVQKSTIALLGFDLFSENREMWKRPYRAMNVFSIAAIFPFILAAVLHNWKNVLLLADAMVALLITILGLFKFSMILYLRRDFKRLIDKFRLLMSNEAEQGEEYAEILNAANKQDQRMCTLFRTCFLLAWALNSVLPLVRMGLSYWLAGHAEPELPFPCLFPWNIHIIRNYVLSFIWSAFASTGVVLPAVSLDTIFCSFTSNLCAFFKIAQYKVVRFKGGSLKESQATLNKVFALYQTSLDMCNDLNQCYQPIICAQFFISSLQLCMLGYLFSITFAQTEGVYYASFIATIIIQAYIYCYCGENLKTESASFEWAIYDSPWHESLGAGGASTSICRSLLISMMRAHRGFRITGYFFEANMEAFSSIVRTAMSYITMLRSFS
Kind of assay: Exogenous membrane protein function before drying and after drying-rehydration, Orco-Or47a stable expression cell line. The arrangement: remnant residues; expressed in transfected cells; host or cells: Pv11 cells (Polypedilum vanderplanki), CRIS-PITCh knock-in at the Pv.00443 locus downstream of the 121 promoter, Zeocin selection and single-cell sorting. Format: cell-based. The method, then:
To assess the drought tolerance of the cell lines, the cells were dried according to the following protocol. 4×10^7 Pv11-GCaMP6f stable expression cell lines were centrifuged at 700 g for 3 minutes and the supernatant removed. The precipitated cells were suspended in a 600 mM trehalose mix of 600 mM trehalose and IPL-41 medium at a ratio of 9:1, transferred to a 2 ml flask, and incubated at 25° C. for 48 hours. After 48 hours, the obtained cells were centrifuged at 700 g for 3 minutes and the supernatant was removed. The sedimented cells were suspended in 400 μl of 600 mM trebalose mix, and 40 μl were dropped onto a 35 mm dish. The 35 mm dish was dried for 10 days under conditions of 25° C. and humidity of 10% or less.
6. Assessment of exogenous membrane protein function after drying-rehydration. Using the Orco stable expression cell line and Orco-Or47a stable expression cell line, in order to assess the function of exogenous membrane proteins before drying and after 1 hour of rehydration after drying, fluorescence intensity generated in response to stimulation with VUAA1 (Orco agonist) or pentyl acetate (ligand of Or47a) was measured in the same manner as in 3.2 above.
The fluorescence intensity was digitized from the photograph, and ΔF/F was calculated according to the following formula:
Where the summation Σi=1^n is over the n cells in the image, Fi,after means the fluorescence intensity of the cell i after adding the ligand solution, and Fi,0 means the fluorescence intensity of the cell i before adding the ligand solution.
Specifically, a fluorescence image was taken under the condition in which the excitation wavelength/fluorescence wavelength was 488 nm/525 nm. In the fluorescence intensity quantification, the cells were identified in the photographed image, and the fluorescence intensity (F) was measured for each time. The initial values of fluorescence intensity (F0) were subtracted from the measured fluorescence intensity at each time to obtain the amount of change in fluorescence (ΔF), which was then normalized by dividing by the initial value of fluorescence intensity (F0) to obtain (Δ F/F0). A number of cells n were selected from the captured image, ΔF/F0 were produced for each, and the average value (including standard deviation, SD) of the results was graphed. For example, 25 cells were selected from the captured image, ΔF/F0 for each were produced, and the averaged results (including SD) were graphed. […] The Orco-Or47a stable expression cell line before drying responded to the Orco agonist (VUAA1) and the specific ligand of Or47a, pentyl acetate.

Assay [2] has as its target T1, Orco-Or47a. Nature of the assay: Response of BAM-immobilized Orco-Or47a stable expression cell line. The note with it: Pv11-GCaMP6f-Orco-Or47a stable expression cell line immobilized with BAM. Also noted: remnant residues; expressed in transfected cells; host or cells: Pv11 cells (Polypedilum vanderplanki), CRIS-PITCh knock-in at the Pv.00443 locus downstream of the 121 promoter, Zeocin selection and single-cell sorting. In kind it is cell-based. The source says: 8.1 Pv11 cell immobilization. A cell membrane modifier (BAM: Biocompatible Anchor for cell Membrane) was used to fix the stable expression cell line obtained above. BAM consists of a hydrophilic PEG chain, an NHS group, and a hydrophobic oleyl group; by bringing BAM into contact with a collagen-coated dish, the NHS group binds to collagen, and the oleyl group interacts with the cell membrane through hydrophobic interactions, allowing cells to adhere. BAM (SUNBRIGHT OE-040CS, Yuka Sangyo Co., Ltd.) was dissolved in DMSO (Fujifilm Wako Pure Chemical Industries) to a concentration of 10 mM. The 10 mM BAM solution was adjusted to DPBS(-) (Thermo Fisher) to a final concentration of 100 μM, 100 μl was dropped onto a collagen 1-coated 48-well microplate (IWAKI) and incubated at 37° C. for 1 hour. The BAM solution was removed, washed once with DPBS(-) (Thermo Fisher) and five times with MilliQ, and allowed to stand still to evaporate water droplets. The Pv11 cell suspension was centrifuged at 700 g for 3 minutes, the supernatant was removed, the cell pellet was suspended in DPBS(-) (Thermo Fisher) and dropped onto a BAM-coated dish. […]
8.2 Functional confirmation of exogenous membrane proteins in fixed cells. […] Each substance was reacted with each cell in the same manner as in 3.2 above, and the fluorescence intensity was measured. […]

Where [3] appears, read: 1 hour after drying and rehydration, compared to DMSO control.

As to `CCCCCOC(C)=O` [pentyl acetate], the “response as change in fluorescence intensity (ΔF/F0)” value is “significant difference in responsiveness; also recorded: fluorescence was observed” on Orco-Or47a [1] (setting [3]) and “responded” at Orco-Or47a [1] (before drying). Besides, the “response (fluorescence intensity) of immobilized cells” value on Orco-Or47a [2] is “responded”.

As for `CCc1ccc(NC(=O)CSc2nnc(-c3cccnc3)n2CC)cc1` [VUAA1, N-(4-ethylphenyl)-2-{[4-ethyl-5-(pyridin-3-yl)-4H-1,2,4-triazol-3-yl]sulfanyl}acetamide], the figures for the “response as change in fluorescence intensity (ΔF/F0)” value at Orco-Or47a [1] (setting [3]) and on Orco-Or47a [1] (before drying) were “significant difference in responsiveness; also recorded: fluorescence was observed” and “responded”, respectively. The “response (fluorescence intensity) of immobilized cells” value at Orco-Or47a [2] was “responded”.
